Columns and labels:
[1] = tested on: C-PVR cells; assay: CyQuant cell proliferation assay in human patient derived primary cultures of PVR; assay type: cell-based
Description: Twelve candidate drugs were tested at 2 concentrations at 72 hours for their effects on proliferation and cytotoxicity in C-PVR cells. […] Each anti-proliferative drug was tested at 2 concentrations determined by using the IC50 of each drug. The data was expressed as percent cell inhibition.
The cells were washed and the CyQuant Direct nucleic acid stain was added and incubated at 37 degrees in the incubator. Fluorescence read outs were measured at wavelengths as instructed in the protocol.

[2] = tested on: human PVR explants; assay: Ex vivo human PVR explant outgrowth and sprouting model; assay type: cell-based; conditions: for total branch length of outgrowths: vehicle 167 mm; for sprouting distance from the explant (in words): 3-10 days
[3] = Homo sapiens, 72 hours, C-PVR cells
[4] = Homo sapiens, 5 μM, 72 hours, C-PVR cells

COc1cccc2c1C(=O)c1c(O)c3c(c(O)c1C2=O)C[C@@](O)(C(C)=O)C[C@@H]3O[C@H]1C[C@H](N)[C@H](O)[C@H](C)O1 [Daunorubicin]
reduction in proliferation ([1]; 15 nM, 72 hours, C-PVR cells): 50%
reduction in proliferation ([1]; 30 nM, 72 hours, C-PVR cells): 53%

O=C1CN=C(c2ccc[nH]2)c2cc(Cl)ccc2N1 [RUNX1 inhibitor, Ro5-3335]
inhibition of growth of C-PVR cells (in words) ([1]; 150 μM alone, 48 and 72 hours): efficacious at inhibiting growth of C-PVR cells

CC[C@@]1(O)C(=O)OCc2c1cc1n(c2=O)Cc2cc3c(CN(C)C)c(O)ccc3nc2-1 [Topotecan, topotecan]
total branch length of outgrowths ([2]; 40 nM (so in the source)): 34 mm
sprouting distance from the explant (in words) ([2]; 80 nM alone): statistically significant reduction in sprouting distance
decrease in proliferation ([1]; 40 nM, 72 hours, C-PVR cells): 54%
decrease in proliferation ([1]; 80 nM, 72 hours, C-PVR cells): 53%
inhibition of proliferation of C-PVR cells (in words) ([1]; concentrations of 40 nM and 80 nM, FIG. 1B): effectively inhibited the proliferation of C-PVR cells

Cn1c(CCCC(=O)O)nc2cc(N(CCCl)CCCl)ccc21 [bendamustine]
inhibition at 1 µM [1, 3]: 25%
inhibition at 5 µM [1, 4]: 20%

COC(=O)N[C@H](C(=O)N1CCC[C@H]1c1ncc(-c2ccc(-c3ccc(-c4cnc([C@@H]5CCCN5C(=O)[C@@H](NC(=O)OC)C(C)C)[nH]4)cc3)cc2)[nH]1)C(C)C [daclatsvir]
inhibition of cell proliferation ([1]; 5 μM, 72 hours, C-PVR cells): 16%

Nc1cccc2c1CN(C1CCC(=O)NC1=O)C2=O (stereo not shown) [lenalidomide]
inhibition of proliferation ([1]; concentration not given, 72 hours, C-PVR cells): 24%

CN1CCN(c2c(F)cc3c(=O)c(C(=O)O)cn4c3c2OCN4C)CC1 [marbofloxacin]
inhibition at 5 µM [1, 4]: 30%

N[C@@H](Cc1ccc(N(CCCl)CCCl)cc1)C(=O)O [melphalan, 4-[bis(2-chloroethyl)amino]-L-phenylalanine]
sprouting distance from the explant (in words) ([2]; 30 μM alone): statistically significant reduction in sprouting distance
total branch length of outgrowths ([2]; 30 μM): 27.5 mm
reduction of cell proliferation ([1]; 60 μM, 72 hours, C-PVR cells): 83%
inhibition at 30 µM ([1]; Homo sapiens, 30 μM, 72 hours, C-PVR cells): 74%
inhibition of proliferation of C-PVR cells (in words) ([1]; concentrations of 30 nM and 60 nM (so in the source), FIG. 1A): effectively inhibited the proliferation of C-PVR cells

Oc1ccc(C=Cc2cc(O)cc(O)c2)cc1 [resveratrol]
inhibition at 5 µM [1, 4]: 28%

CC(C)[C@H](O)C(=O)N[C@@H](C)C(=O)N[C@@H]1C(=O)N(C)CCc2ccccc21 [semagacestat]
inhibition at 1 µM [1, 3]: 28%
inhibition at 5 µM [1, 4]: 30%

Cc1cn([C@H]2C=C[C@@H](CO)O2)c(=O)[nH]c1=O [stavudine]
inhibition at 5 µM [1, 4]: 19%

Reference: patent US12691110B2 (Massachusetts Eye and Ear Infirmary, priority 2022, dated 2026)
